# Results from patent US20230263905A1, “SONOSENSITIVE LIPOSOME AND METHOD FOR PREPARING SAME” (IMGT CO, LTD., priority 2020, published 2023).
# System: MDA-MB-231 cell line
# Assay: Cancer cell death effect, MTT assay
# Assay type: cell-based
# Details: not irradiated with ultrasound; 2-10 μg/mL doxorubicin, 3 hours treatment, 72 hours culture; FIG. 9
# Description: To compare and analyze a cell death effect of the sonosensitive liposome according to the presence/absence of ultrasound irradiation, cancer cell death effects were compared and analyzed according to the presence/absence of ultrasound irradiation using the sonosensitive liposomes of Example 1. An MDA-MB-231 cell line which is a triple-negative breast cancer cell line was used as cancer cells. The MDA-MB-231 cell line was seeded in each well of a 96-well plate at a concentration of 10,000 cells/mL, and then cultured overnight. The cell culture was cultured in a culture broth containing 10% fetal bovine serum (FBS) and 1% antibiotic in Dulbecco's Modified Eagle Medium (DMEM). The culture broth was removed from the wells in which the cells were cultured overnight, and replaced with FBS-free DMEM, and then cultured for an hour. Then, the sonosensitive liposome were added thereto, and cultured for 3 hours. To compare and analyze the cancer cell death according to the ultrasound irradiation, each of the designated wells was treated with a sonosensitive liposome (Sono liposome (US+)) irradiated with ultrasound and a sonosensitive liposome (Sono liposome (US−)) not irradiated with ultrasound. […] The cancer cell death effects were compared and analyzed by adding 200 μL of DMSO to formed formazan in each well and measuring the absorbance at a wavelength of 540 nm using an ELISA reader.
compound,measurement,value
COc1cccc2c1C(=O)c1c(O)c3c(c(O)c1C2=O)C[C@@](O)(C(=O)CO)C[C@@H]3O[C@H]1C[C@H](N)[C@H](O)[C@H](C)O1 [doxorubicin],cell death effect on cancer cells,had a cancer cell death effect
